Measured values as given in ChEMBL document CHEMBL4266047, “First Report of Plant-Derived β-Sitosterol with Antithrombotic, in Vivo Anticoagulant, and Thrombus-Preventing Activities in a Mouse Model” (J Nat Prod, 2018).
The source made the active and inactive calls. The rule behind the calls is not given here.

Legend:
[1] = tested on: Platelet; test: Antiplatelet activity in human washed platelets up to 10 uM incubated for 5 mins measured after 300 secs; assay type: functional, cell-based
[2] = tested on: Platelet; test: Antiplatelet activity in human platelet rich plasma up to 10 uM incubated for 5 mins measured after 300 secs; assay type: functional, cell-based
[3] = tested on: Mus musculus; test: Anticoagulant activity in Swiss albino mouse assessed as plasma clotting time at 50 mg/kg, iv measured after 5 hrs (reference value: 175.5 +/- 9.1 sec); assay type: functional
[4] = tested on: Mus musculus; test: Anticoagulant activity in Swiss albino mouse assessed as increase in activated partial thromboplastin time at 50 mg/kg, iv measured after 5 hrs relative to control; assay type: functional
[5] = tested on: Mus musculus; test: Anticoagulant activity in Swiss albino mouse assessed as increase in prothrombin time at 50 mg/kg, iv measured after 5 hrs relative to control; assay type: functional
[6] = tested on: Mus musculus; test: Anticoagulant activity in Swiss albino mouse assessed as tail bleeding time at 50 mg/kg, iv measured after 5 hrs (reference value: 45.3 +/- 2.5 sec); assay type: functional
[7] = target: T1, Prothrombin (Homo sapiens, UniProt P00734); test: Binding affinity to human thrombin by isothermal calorimetric titration method
[8] = tested on: Mus musculus; test: Antithrombotic activity in Swiss albino mouse tail thrombosis model assessed as inhibition of k-carrageenan-induced thrombus formation at 12.5 mg/kg, po administered for one week followed by k-carrageenan challenge 30 mins post last compound dose and measured after 72 hrs; assay type: functional
[9] = tested on: Plasma; test: Anticoagulant activity in human platelet poor plasma assessed as increase in prothrombin time at 1.25 to 15 uM after 3 mins; assay type: functional, cell-free
[10] = tested on: Blood; test: Anticoagulant activity in goat whole blood assessed as prolongation of calcium clotting time after 3 mins; assay type: functional, tissue-based; conditions: Capra hircus
[11] = tested on: Blood; test: Thrombolytic activity in goat non-heated blood clot assessed as plasmin activation at 1 uM using V0882 as substrate incubated for 20 mins measured for 15 mins; assay type: functional, Capra hircus
[12] = tested on: Blood; test: Thrombolytic activity in goat heated blood clot assessed as clot lysed after 3 hrs (reference value: 0.7 +/- 0.2 mg/microM); assay type: functional, Capra hircus
[13] = tested on: Mus musculus; test: Antithrombotic activity in Swiss albino mouse tail thrombosis model assessed as inhibition of k-carrageenan-induced thrombus formation at 25 mg/kg, po administered for one week followed by k-carrageenan challenge 30 mins post last compound dose and measured after 24 hrs; assay type: functional
[14] = target: T1, Prothrombin; test: Inhibition of thrombin in human washed platelets assessed as reduction in thrombin-induced platelet aggregation after 5 mins
[15] = tested on: Blood; test: Thrombolytic activity in goat heated blood clot assessed as plasmin activation at 1 uM using V0882 as substrate incubated for 20 mins measured for 15 mins; assay type: functional, Capra hircus
[16] = tested on: Mus musculus; test: Antithrombotic activity in Swiss albino mouse tail thrombosis model assessed as inhibition of k-carrageenan-induced thrombus formation at 50 mg/kg, po administered for one week followed by k-carrageenan challenge 30 mins post last compound dose and measured after 24 hrs; assay type: functional
[17] = tested on: Heterodera schachtii; test: Binding affinity to human fibrinogen at 1.25 to 15 uM after 3 mins by fluorescence spectrometric analysis
[18] = tested on: Blood; test: Thrombolytic activity in goat heated blood clot assessed as plasmin activation at 1 uM using V0882 as substrate incubated for 20 mins measured for 15 mins in presence of serine protease inhibitor PMSF; assay type: functional, tissue-based; conditions: Capra hircus
[19] = target: T1, Prothrombin; test: Inhibition of human thrombin using T1637 as substrate
[20] = tested on: Mus musculus; test: Antithrombotic activity in Swiss albino mouse tail thrombosis model assessed as inhibition of k-carrageenan-induced thrombus formation at 25 mg/kg, po administered for one week followed by k-carrageenan challenge 30 mins post last compound dose and measured after 48 hrs; assay type: functional
[21] = tested on: Blood; test: Thrombolytic activity in goat non-heated blood clot assessed as plasmin activation at 1 uM using V0882 as substrate incubated for 20 mins measured for 15 mins in presence of serine protease inhibitor PMSF; assay type: functional, tissue-based; conditions: Capra hircus
[22] = target: T1, Prothrombin; test: Inhibition of human thrombin assessed as prolongation of fibrinogen clotting time of thrombin
[23] = tested on: Blood; test: Thrombolytic activity in goat non-heated blood clot assessed as clot lysed after 3 hrs (reference value: 2.1 +/- 0.3 mg/microM); assay type: functional, Capra hircus
[24] = tested on: Mus musculus; test: Antithrombotic activity in Swiss albino mouse tail thrombosis model assessed as inhibition of k-carrageenan-induced thrombus formation at 50 mg/kg, po administered for one week followed by k-carrageenan challenge 30 mins post last compound dose and measured after 72 hrs; assay type: functional
[25] = tested on: Mus musculus; test: Defibrinogenation activity in Swiss albino mouse plasma at 50 mg/kg, iv measured after 5 hrs; assay type: functional, organism-based
[26] = tested on: Erythrocyte; test: Hemolytic activity against human erythrocytes assessed as hemolysis at 2.5 to 50 uM after 90 mins; assay type: ADME, cell-based; conditions: 1.5 h
[27] = tested on: Mus musculus; test: Antithrombotic activity in Swiss albino mouse tail thrombosis model assessed as inhibition of k-carrageenan-induced thrombus formation administered orally for one week followed by k-carrageenan challenge 30 mins post last compound dose and measured after 24 to 72 hrs; assay type: functional, organism-based
[28] = tested on: Mus musculus; test: Antithrombotic activity in Swiss albino mouse tail thrombosis model assessed as inhibition of k-carrageenan-induced thrombus formation at 25 mg/kg, po administered for one week followed by k-carrageenan challenge 30 mins post last compound dose and measured after 72 hrs; assay type: functional
[29] = tested on: Plasma; test: Anticoagulant activity in human platelet poor plasma assessed as prolongation of calcium clotting time at 2.5 uM after 3 mins; assay type: functional, cell-free
[30] = target: T1, Prothrombin; test: Inhibition of human thrombin at 7.5 uM using T1637 as substrate preincubated for 30 mins followed by heparin addition by SDS-PAGE analysis
[31] = tested on: Plasma; test: Anticoagulant activity in human platelet poor plasma assessed as prolongation of calcium clotting time after 3 mins; assay type: functional, cell-free
[32] = tested on: Plasma; test: Anticoagulant activity in human platelet poor plasma assessed as prolongation of calcium clotting time at 2.5 uM; assay type: functional, cell-free; conditions: TDE = time-dependent effect
[33] = tested on: Mus musculus; test: Antithrombotic activity in Swiss albino mouse tail thrombosis model assessed as inhibition of k-carrageenan-induced thrombus formation at 50 mg/kg, po administered for one week followed by k-carrageenan challenge 30 mins post last compound dose and measured after 48 hrs; assay type: functional
[34] = tested on: Mus musculus; test: Antithrombotic activity in Swiss albino mouse tail thrombosis model assessed as inhibition of k-carrageenan-induced thrombus formation at 12.5 mg/kg, po administered for one week followed by k-carrageenan challenge 30 mins post last compound dose and measured after 48 hrs; assay type: functional
[35] = tested on: HEK293; test: Cytotoxicity against HEK293 cells assessed as decrease in cell viability at 50 uM after 24 hrs by MTT assay; assay type: cell-based; conditions: human, hek293, 24 h
[36] = target: Coagulation factor X (Homo sapiens) (UniProt P00742); test: Binding affinity to human factor 10a at 1.25 to 15 uM after 3 mins by fluorescence spectrometric analysis
[37] = target: T1, Prothrombin; test: Uncompetitive inhibition of human thrombin using T1637 as substrate by Michaelis-Menten plot analysis
[38] = target: T1, Prothrombin; test: Inhibition of thrombin in human platelet rich plasma assessed as reduction in thrombin-induced platelet aggregation after 5 mins
[39] = target: Coagulation factor X (Homo sapiens) (UniProt P00742); test: Inhibition of human factor 10a assessed as prothrombin activation using F3301 as substrate
[40] = tested on: Plasma; test: Anticoagulant activity in human platelet poor plasma assessed as activated partial thromboplastin time at 10 uM after 3 mins (reference value: 14.2 +/- 1.3 sec); assay type: functional
[41] = tested on: Heterodera schachtii; test: Inhibition of human fibrinogen at 5 uM after 120 mins by SDS-PAGE analysis
[42] = target: T1, Prothrombin; test: Binding affinity to human thrombin at 1.25 to 15 uM after 3 mins by fluorescence spectrometric analysis
[43] = tested on: Mus musculus; test: Antithrombotic activity in Swiss albino mouse tail thrombosis model assessed as inhibition of k-carrageenan-induced thrombus formation at 12.5 mg/kg, po administered for one week followed by k-carrageenan challenge 30 mins post last compound dose and measured after 24 hrs; assay type: functional

Coagulation factor X (Homo sapiens), sequence (P00742 41-179 limits assumed): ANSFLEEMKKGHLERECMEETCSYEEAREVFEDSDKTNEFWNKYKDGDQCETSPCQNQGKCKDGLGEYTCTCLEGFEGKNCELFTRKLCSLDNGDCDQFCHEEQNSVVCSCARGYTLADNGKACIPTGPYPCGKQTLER
Coagulation factor X (Homo sapiens), sequence (P00742 235-488 limits assumed): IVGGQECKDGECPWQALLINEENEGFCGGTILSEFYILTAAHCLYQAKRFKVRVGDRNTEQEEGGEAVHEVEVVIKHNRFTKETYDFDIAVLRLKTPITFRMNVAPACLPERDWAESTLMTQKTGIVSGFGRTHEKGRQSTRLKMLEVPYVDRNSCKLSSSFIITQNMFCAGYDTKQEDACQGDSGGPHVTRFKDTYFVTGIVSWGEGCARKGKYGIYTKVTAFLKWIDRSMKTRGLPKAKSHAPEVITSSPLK

SMILES: CC(=O)Oc1ccccc1C(=O)O
- Activity [1]: Active
- Activity [2]: Active

SMILES: CC1CNc2c(cccc2S(=O)(=O)N[C@@H](CCCNC(=N)N)C(=O)N2CC[C@@H](C)C[C@@H]2C(=O)O)C1 (some centres not stated) [ARGATROBAN]
- Time [3]: 238.6 s
- fold change (FC) [4]: 2.3
- fold change (FC) [5]: 4
- Time [6]: 143.5 s

SMILES: CC[C@H](CC[C@@H](C)[C@H]1CC[C@H]2[C@@H]3CC=C4C[C@@H](O)CC[C@]4(C)[C@H]3CC[C@]12C)C(C)C [BETA-SITOSTEROL]
- Ka [7]: 109 M⁻¹
- Time [3]: 193.5 s
- inhibition in vivo at 12.5 mg/kg [8]: 23.2%
- fold change (FC) [4]: 1.6
- Activity [9]: Active
- Activity [10]: Dose-dependent effect
- Activity [11]: 15.8 mg/µM
- Activity [12]: 1 mg/µM
- inhibition in vivo at 25 mg/kg [13]: 15.2%
- inhibition [14]: Dose-dependent effect
- Activity [15]: 9.2 mg/µM
- fold change (FC) [5]: 1.1
- inhibition in vivo at 50 mg/kg [16]: 23.4%
- Activity [17]: inactive
- Activity [18]: Active
- inhibition [19]: Dose-dependent effect
- Time [6]: 61 s
- inhibition in vivo at 25 mg/kg [20]: 31.3%
- Activity [21]: Active
- inhibition [22]: Dose-dependent effect
- Activity [23]: 7.7 mg/µM
- inhibition in vivo at 50 mg/kg [24]: 47.3%
- Activity [25]: inactive
- Activity [26]: Non-Toxic
- inhibition [27]: Dose-dependent effect
- inhibition in vivo at 25 mg/kg [28]: 36.5%
- Activity [29]: Active
- inhibition [30]: Active
- Activity [31]: Dose-dependent effect
- Activity [32]: Tde
- inhibition in vivo at 50 mg/kg [33]: 42.3%
- inhibition in vivo at 12.5 mg/kg [34]: 14.5%
- Activity [35]: Non-Toxic
- Activity [36]: inactive
- Ki [37]: 267 nM
- inhibition [38]: Dose-dependent effect
- inhibition [39]: inactive
- APTT [40]: 28.2 s
- inhibition [41]: inactive
- Activity [42]: Active
- inhibition in vivo at 12.5 mg/kg [43]: 10.5%
